From patent publication US6653455B1, “Crystallization of doxorubicin hydrochloride” (Mercian Corporation, priority 1998, dated 2003)
Structures can show the parent of a compound that is named as a salt.

Experiment: Solubility test (dissolving time in water)
Assay type: physicochemical
Conditions: 50 mg sample in 5 ml water, 25° C., about 600 rounds/minute stirring, time until completely dissolved; hydrochloride
Procedure: A beaker of 20 ml (minor diameter: 30 mm) was charged with 5 ml of water and then 50 mg of a DOX.HCl crystal sample, and the sample was stirred at 25° C. and about 600 rounds/minute by means of a magnetic stirrer (diameter 6 mm×length 10 mm). Time consumed until the sample was completely dissolved was measured wile observing the dissolving state every 30 seconds with naked eyes.
The solubility test described above was carried out for a DXR.USP standard product (Lot J) (average particle diameter: 28 μm) as comparison and Examples 2, 46,51, 55, 56, 57 and 58, and the results thereof are shown in Table III.

| SMILES | Dissolving time |
| --- | --- |
| COc1cccc2c1C(=O)c1c(O)c3c(c(O)c1C2=O)C[C@@](O)(C(=O)CO)C[C@@H]3O[C@H]1C[C@H](N)[C@H](O)[C@H](C)O1 [Example 46, doxorubicin hydrochloride] | 1.5 to 2 min |
| COc1cccc2c1C(=O)c1c(O)c3c(c(O)c1C2=O)C[C@@](O)(C(=O)CO)C[C@@H]3O[C@H]1C[C@H](N)[C@H](O)[C@H](C)O1 [Example 51, doxorubicin hydrochloride] | 1.5 to 2 min |
| COc1cccc2c1C(=O)c1c(O)c3c(c(O)c1C2=O)C[C@@](O)(C(=O)CO)C[C@@H]3O[C@H]1C[C@H](N)[C@H](O)[C@H](C)O1 [Example 55, doxorubicin hydrochloride] | 1.5 to 2 min |

Further lines, results first:

| Dissolving time | SMILES |
| --- | --- |
| 1.5 to 2 min | COc1cccc2c1C(=O)c1c(O)c3c(c(O)c1C2=O)C[C@@](O)(C(=O)CO)C[C@@H]3O[C@H]1C[C@H](N)[C@H](O)[C@H](C)O1 [Example 56, doxorubicin hydrochloride] |
| 1.5 to 2 min | COc1cccc2c1C(=O)c1c(O)c3c(c(O)c1C2=O)C[C@@](O)(C(=O)CO)C[C@@H]3O[C@H]1C[C@H](N)[C@H](O)[C@H](C)O1 [Example 57, doxorubicin hydrochloride] |
| 14.5 to 15 min | COc1cccc2c1C(=O)c1c(O)c3c(c(O)c1C2=O)C[C@@](O)(C(=O)CO)C[C@@H]3O[C@H]1C[C@H](N)[C@H](O)[C@H](C)O1 [Example 58, doxorubicin hydrochloride] |

Experiment: Hygroscopicity, cup method (weight change)
Assay type: physicochemical
Conditions: weight-increasing rate, 25° C., 50 to 60% RH, 15 minutes; crystals dried at 40° C. under vacuum; hydrochloride
Procedure: Determined by the following cup method. To be specific, about 15 to 20 mg of the sample was put in a cylindrical cup having a diameter of 6 mm and a depth of 6 mm and left standing at a fixed temperature (25° C.) and relative humidity (50 to 60% RH) for 15 minutes to measure a weight change, whereby the hygroscopicity was evaluated.
In the following respective examples, a weight-increasing rate of 0.40% or more is shown by an evaluation criterion that the hygroscopicity is large (−); a weight-increasing rate of 0.20% or more and less than 0.40% is shown by an evaluation criterion that the hygroscopicity is ;intermediate (±); and a weight-increasing rate of less than 0.20% is shown by an evaluation criterion that the hygroscopicity is small: (+).

| SMILES | Hygroscopicity |
| --- | --- |
| COc1cccc2c1C(=O)c1c(O)c3c(c(O)c1C2=O)C[C@@](O)(C(=O)CO)C[C@@H]3O[C@H]1C[C@H](N)[C@H](O)[C@H](C)O1 [Example 46, doxorubicin hydrochloride] | + (a weight-increasing rate of less than 0.20% is shown by an evaluation criterion that the hygroscopicity is small: (+)) |
| COc1cccc2c1C(=O)c1c(O)c3c(c(O)c1C2=O)C[C@@](O)(C(=O)CO)C[C@@H]3O[C@H]1C[C@H](N)[C@H](O)[C@H](C)O1 [Example 51, doxorubicin hydrochloride] | + (a weight-increasing rate of less than 0.20% is shown by an evaluation criterion that the hygroscopicity is small: (+)) |
| COc1cccc2c1C(=O)c1c(O)c3c(c(O)c1C2=O)C[C@@](O)(C(=O)CO)C[C@@H]3O[C@H]1C[C@H](N)[C@H](O)[C@H](C)O1 [Example 55, doxorubicin hydrochloride] | + (a weight-increasing rate of less than 0.20% is shown by an evaluation criterion that the hygroscopicity is small: (+)) |
| COc1cccc2c1C(=O)c1c(O)c3c(c(O)c1C2=O)C[C@@](O)(C(=O)CO)C[C@@H]3O[C@H]1C[C@H](N)[C@H](O)[C@H](C)O1 [Example 56, doxorubicin hydrochloride] | + (a weight-increasing rate of less than 0.20% is shown by an evaluation criterion that the hygroscopicity is small: (+)) |
| COc1cccc2c1C(=O)c1c(O)c3c(c(O)c1C2=O)C[C@@](O)(C(=O)CO)C[C@@H]3O[C@H]1C[C@H](N)[C@H](O)[C@H](C)O1 [Example 57, doxorubicin hydrochloride] | ± (a weight-increasing rate of 0.20% or more and less than 0.40% is shown by an evaluation criterion that the hygroscopicity is ;intermediate (±)) |
| COc1cccc2c1C(=O)c1c(O)c3c(c(O)c1C2=O)C[C@@](O)(C(=O)CO)C[C@@H]3O[C@H]1C[C@H](N)[C@H](O)[C@H](C)O1 [Example 58, doxorubicin hydrochloride] | − (a weight-increasing rate of 0.40% or more is shown by an evaluation criterion that the hygroscopicity is large (−)) |

Experiment: Average particle diameter, microscopic method (Heywood circle-corresponding diameter)
Assay type: physicochemical
Conditions: 10 typical crystals on photograph, hydrochloride
Source text: The average particle diameter is shown by a diameter of a circle having the same area as an injected area of the particle, a so-called Heywood diameter (circle-corresponding diameter) according to a microscopic method (injected image). A small amount of the crystals was put on a slide glass, and 1 to 2 drops of a hydrophilic surfactant (sesquioleic acid sorbitan) were fallen thereon to disperse them. It was photographed by means of a polarization microscope (photographing lens: 3.3 magnifications, objective lens: 20 magnifications) equipped with a photographing device. Optional 10 pieces of the typical crystals were selected on the photograph to measure a long diameter and a short diameter thereof An (projected) area of the particle was shown by long diameter×short diameter, and the particle diameter was shown by a diameter of a circle having the same area as that obtained above.

| SMILES | Average particle diameter |
| --- | --- |
| COc1cccc2c1C(=O)c1c(O)c3c(c(O)c1C2=O)C[C@@](O)(C(=O)CO)C[C@@H]3O[C@H]1C[C@H](N)[C@H](O)[C@H](C)O1 [Example 46, doxorubicin hydrochloride] | 86 μm |
| COc1cccc2c1C(=O)c1c(O)c3c(c(O)c1C2=O)C[C@@](O)(C(=O)CO)C[C@@H]3O[C@H]1C[C@H](N)[C@H](O)[C@H](C)O1 [Example 51, doxorubicin hydrochloride] | 73 μm |
| COc1cccc2c1C(=O)c1c(O)c3c(c(O)c1C2=O)C[C@@](O)(C(=O)CO)C[C@@H]3O[C@H]1C[C@H](N)[C@H](O)[C@H](C)O1 [Example 55, doxorubicin hydrochloride] | 24 μm |

The remaining lines, values ahead:

| Average particle diameter | SMILES |
| --- | --- |
| 37 μm | COc1cccc2c1C(=O)c1c(O)c3c(c(O)c1C2=O)C[C@@](O)(C(=O)CO)C[C@@H]3O[C@H]1C[C@H](N)[C@H](O)[C@H](C)O1 [Example 56, doxorubicin hydrochloride] |
| 35 μm | COc1cccc2c1C(=O)c1c(O)c3c(c(O)c1C2=O)C[C@@](O)(C(=O)CO)C[C@@H]3O[C@H]1C[C@H](N)[C@H](O)[C@H](C)O1 [Example 57, doxorubicin hydrochloride] |
| <4 μm | COc1cccc2c1C(=O)c1c(O)c3c(c(O)c1C2=O)C[C@@](O)(C(=O)CO)C[C@@H]3O[C@H]1C[C@H](N)[C@H](O)[C@H](C)O1 [Example 58, doxorubicin hydrochloride] |
